What is called EC50 is the concentration needed to bring the measured effect to its halfway point.

“Also recorded” adds a separate entry of the source.

These results are taken from US6114127A, “Methods of screening for agonists and antagonists of the HDPXU17 receptor” (SmithKline Beecham Corporation, priority 1998, dated 2000).

For test [1], the target named is T1, HDPXU17 receptor (P2Y-like receptor) (Homo sapiens, UniProt Q96G91).
T1 construct: expressed in transfected cells; host or cells: HEK 293 cells stably expressing the MREIIVIPII luciferase reporter gene, transiently transfected with pCDN-HDPXU17 DNA (Lipofectamine)
T1 sequence (Q96G91 1-374): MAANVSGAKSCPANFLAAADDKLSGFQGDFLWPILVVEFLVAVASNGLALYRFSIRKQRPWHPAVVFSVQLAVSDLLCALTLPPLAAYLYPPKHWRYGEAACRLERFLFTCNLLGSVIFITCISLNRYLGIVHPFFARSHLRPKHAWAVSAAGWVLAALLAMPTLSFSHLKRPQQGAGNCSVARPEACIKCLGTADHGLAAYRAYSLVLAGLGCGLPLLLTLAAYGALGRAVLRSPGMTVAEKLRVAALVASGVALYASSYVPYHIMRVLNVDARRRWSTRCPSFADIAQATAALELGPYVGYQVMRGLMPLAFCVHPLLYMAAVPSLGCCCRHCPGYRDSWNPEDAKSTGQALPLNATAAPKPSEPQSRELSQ
In words: Gs reporter gene luciferase assay, HEK 293 cells stably expressing the luciferase reporter, transfected with HDPXU17 DNA. The conditions noted are these: for luciferase activity: concentration ranges from 3-300,000 nM, HDPXU17-transfected HEK 293 reporter cells, result in words; for EC50: luciferase activity, HEK 293 MREIIVIPII reporter cells transfected with HDPXU17, 3-300,000 nM. In kind it is cell-based. From the text:
(§1) The Gs reporter gene luciferase assay for orphan G-protein coupled receptors has been developed using a recombinant construct MREIVIPII plasmid, which has been disclosed European Patent Application No. 0 863 214, published on Sep. 9, 1998. This assay utilizes a luciferase gene fused to three copies of multiple response elements (MREs), one copy of cAMP response element (CRE) and the basal promoter of the vasointestinal peptide (VIP) gene to specifically monitor protein kinase A activation that results from an increase in intracellular cAMP. The system is not sensitive to activation of protein kinase C pathways. Rather, it responds to increases in cAMP mediated by endogenous and recombinant Gs-coupled GPCR activation with up to 120-fold increases in luciferase activity.
(§2) The assay begins when HEK 293 cells stably expressing the MREIIVIPII luciferase reporter gene were seeded at 4,500,000 per flask and incubated overnight at 37° C. The next day, solutions A (4 ug of pCDN-HDPXU17DNA was added to 0.8 ml EMEM without serum) and B (23.1 ul Lipofectamine was mixed in 0.8 ml EMEM without serum) were prepared, mixed together and incubated 30 min at room temperature. During the incubation, the culture medium was aspirated from cells and replaced with 12.5 ml serum-free EMEM. Next, the DNA and Lipofectamine mixture was added to the cells and incubated at 37° C. for 6 hours. After 6 hours, 13 ml of EMEM containing 10% FBS was added to the cells and incubated overnight at 37° C. The next day, the 96-well plates were pretreated with 1× Matrixgel solution at 50 ul/well for one hour. Then, the matrixgel solution and plate cells were aspirated at 2000-4000 cells/well. After overnight incubation at 37° C., 5-20 ul /well of the test compounds were added to the 96-well plates and incubated at 37° C. After 6 hours, the medium of each well was aspirated, 25 ul of 1×PBS without calcium and magnesium was added, the plates were frozen at -70° C. Then, the plates were allowed to thaw. Luc-lite solution (25 ul/well) was added and luciferase activity was measured by TopCount HTS.
In stable HDPXU17-expressing 293 cells(clone 20#) cells transiently transfected with MREIIVIPII plasmid, similar results are obtained.
(In general: Reporter assays use an easily measured gene product as a stand-in for the process of interest.)

Test [2] addresses T1, HDPXU17 receptor (P2Y-like receptor). Kind of test: Gs reporter gene luciferase assay, stable HDPXU17-expressing 293 cells (clone 20#) transiently transfected with MREIIVIPII plasmid. The conditions noted are these: for EC50: luciferase activity, stable HDPXU17-expressing 293 cells (clone 20#) transiently transfected with MREIIVIPII plasmid. Type of test: cell-based.
From the text: as §1
as §2, with “HTS. […]” for “HTS.”

`Nc1ccn([C@H]2C[C@H](O)[C@@H](COP(=O)(O)OP(=O)(O)OP(=O)(O)O)O2)c(=O)n1` [dCTP]: the luciferase activity result in test [1] is given as “no effect on luciferase activity”.
Take `Nc1ncnc2c1ncn2[C@H]1C[C@H](O)[C@@H](COP(=O)(O)OP(=O)(O)OP(=O)(O)O)O1` [dATP, deoxyadenosine triphosphate]: the “best ligand for HDPXU 17 receptor” value in test [1] (based on results in both transient and stable HDPXU17 cells) is “appears to be the best ligand for HDPXU 17 receptor”. Also, in test [1], the luciferase activity result was “increase luciferase activity only in cells transfected with the HDPXU17 receptor” and the EC50 is 17.3 µM. Besides, in test [2], the EC50 amounted to 4.05 µM.
As for `O=c1ccn([C@@H]2O[C@H](COP(=O)(O)OP(=O)(O)OP(=O)(O)O)[C@@H](O)[C@H]2O)c(=O)[nH]1` [UTP, uridine triphosphate], the luciferase activity entry in test [1] is recorded as “increase luciferase activity only in cells transfected with the HDPXU17 receptor; also recorded: specific, but weak”; in test [2] (stable HDPXU17-expressing 293 cells (clone 20#), result in words) it was “still weak, but specific”.
Regarding `Nc1nc2c(ncn2[C@H]2C[C@H](O)[C@@H](COP(=O)(O)OP(=O)(O)OP(=O)(O)O)O2)c(=O)[nH]1` [dGTP], in test [1], the luciferase activity entry is recorded as “no effect on luciferase activity”.
Take `Nc1ncnc2c1ncn2[C@H]1C[C@H](O)[C@@H](COP(=O)(O)O)O1` [dAMP, deoxyadenosine monophosphate]: the luciferase activity result in test [1] is “increase luciferase activity only in cells transfected with the HDPXU17 receptor”. Moreover, the figures for the concentration for a half-maximal effect (EC50) in test [1] and in test [2] were 105 µM and 200 µM, respectively.
For `Cc1cn([C@H]2C[C@H](O)[C@@H](COP(=O)(O)OP(=O)(O)OP(=O)(O)O)O2)c(=O)[nH]c1=O` [dTTP], the luciferase activity result in test [1] was “no effect on luciferase activity”.
